Experimental data from ChEMBL document CHEMBL2311503, “Synthesis and anti-angiogenic activity of benzothiazole, benzimidazole containing phthalimide derivatives” (Bioorg Med Chem Lett, 2013).
Calls of active or inactive are those of the source. The calls are words filed in the database; no cut-off is given here.

Species: Gallus gallus
Assay: Antiangiogenic activity in chicken embryo chorioallantoic membrane assessed as inhibition of growth of new vessels proximity at 10 uM after 6 hrs by CAM assay
Format: functional, tissue-based

Row | Structure (SMILES) | inhibition
1 | O=C1c2ccccc2C(=O)N1c1nc2ccccc2s1 | Active
2 | Cc1ccc2c(c1)C(=O)N(c1nc3ccccc3s1)C2=O | Active
3 | O=C1c2ccccc2C(=O)N1c1cccc2nsnc12 | Active
4 | O=C1c2ccccc2C(=O)N1c1nc2ccccc2[nH]1 | Active
5 | O=C1c2ccccc2C(=O)N1c1ccc2ncsc2c1 | Active
